pIC50: −log10 of the molar value.
How the values were obtained:
Assay in all cases: cells
[1] = system: LC-2-ad; type: functional, cell-based, Homo sapiens; settings: Homo sapiens, LC-2-ad;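 further: growth inhibition of human LC-2-ad cells, read out with a cell viability assay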
Description: SANGER: Inhibition of human LC-2-ad cell growth in a cell viability assay.

[2] = system: MZ2-MEL; type: functional, cell-based, Homo sapiens; settings: Homo sapiens, MZ2-MEL;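 further: growth inhibition of MZ2-MEL cells read out with a cell viability assay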
Description: SANGER: Inhibition of human MZ2-MEL cell growth in a cell viability assay.

[3] = system: NB5; type: functional, cell-based, Homo sapiens; settings: Homo sapiens, NB5;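 further: growth inhibition of NB5 cells, read out as cell viability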
Description: SANGER: Inhibition of human NB5 cell growth in a cell viability assay.

[4] = system: COLO-668; type: functional, cell-based, Homo sapiens; settings: Homo sapiens, COLO-668
Description: SANGER: Inhibition of human COLO-668 cell growth in a cell viability assay.

[5] = system: DEL; type: functional, cell-based, Homo sapiens; settings: Homo sapiens, DEL;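 further: growth inhibition of the human DEL cell line, read out with a cell viability assay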
Description: SANGER: Inhibition of human DEL cell growth in a cell viability assay.

[6] = system: OMC-1; type: functional, cell-based, Homo sapiens; settings: Homo sapiens, OMC-1;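 further: growth inhibition of the OMC-1 cell line, measured by a cell viability assay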
Description: SANGER: Inhibition of human OMC-1 cell growth in a cell viability assay.

[7] = system: TE-8; type: functional, cell-based, Homo sapiens; settings: Homo sapiens, TE-8;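 further: growth inhibition of TE-8 cells, measured with a cell viability readout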
Description: SANGER: Inhibition of human TE-8 cell growth in a cell viability assay.

[8] = system: SK-UT-1; type: functional, cell-based, Homo sapiens; settings: Homo sapiens, SK-UT-1;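 further: growth inhibition of SK-UT-1 cells, measured by a cell viability assay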
Description: SANGER: Inhibition of human SK-UT-1 cell growth in a cell viability assay.

[9] = system: LS-513; type: functional, cell-based, Homo sapiens; settings: Homo sapiens, LS-513
Description: SANGER: Inhibition of human LS-513 cell growth in a cell viability assay.

[10] = system: KG-1; type: functional, cell-based, Homo sapiens; settings: Homo sapiens, KG-1;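 further: growth inhibition of KG-1 cells, read out by a cell viability assay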
Description: SANGER: Inhibition of human KG-1 cell growth in a cell viability assay.

[11] = system: LB2518-MEL; type: functional, cell-based, Homo sapiens; settings: Homo sapiens, LB2518-MEL;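 further: growth inhibition of human LB2518-MEL cells, measured with a cell viability assay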
Description: SANGER: Inhibition of human LB2518-MEL cell growth in a cell viability assay.

[12] = system: A253 cell line; type: functional, cell-based, Homo sapiens; settings: Homo sapiens, A253;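 further: growth inhibition of A253 cells, read out with a cell viability assay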
Description: SANGER: Inhibition of human A253 cell growth in a cell viability assay.

[13] = system: TE-1; type: functional, cell-based, Homo sapiens; settings: Homo sapiens, TE-1;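 further: growth inhibition of the human TE-1 cell line, read out with a cell viability assay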
Description: SANGER: Inhibition of human TE-1 cell growth in a cell viability assay.

[14] = system: Calu-6; type: functional, cell-based, Homo sapiens; settings: Homo sapiens, Calu-6;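 further: growth of human Calu-6 cells, read out by a cell viability assay, IC50 marking inhibition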
Description: SANGER: Inhibition of human Calu-6 cell growth in a cell viability assay.

[15] = system: SNB-75; type: functional, cell-based, Homo sapiens; settings: Homo sapiens, SNB-75;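 further: cell viability assay measuring growth inhibition of human SNB-75 cells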
Description: SANGER: Inhibition of human SNB75 cell growth in a cell viability assay.

[16] = system: KE-37; type: functional, cell-based, Homo sapiens; settings: Homo sapiens, KE-37;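 further: growth inhibition of KE-37 cells, read out with a cell viability assay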
Description: SANGER: Inhibition of human KE-37 cell growth in a cell viability assay.

[17] = system: LU-134-A; type: functional, cell-based, Homo sapiens; settings: Homo sapiens, LU-134-A
Description: SANGER: Inhibition of human LU-134-A cell growth in a cell viability assay.

[18] = system: ONS-76; type: functional, cell-based, Homo sapiens; settings: Homo sapiens, ONS-76;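 further: growth inhibition of human ONS-76 cells, read out with a cell viability assay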
Description: SANGER: Inhibition of human ONS-76 cell growth in a cell viability assay.

[19] = system: ACN; type: functional, cell-based, Homo sapiens; settings: Homo sapiens, ACN;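 further: growth inhibition of the human ACN cell line, read out via cell viability testing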
Description: SANGER: Inhibition of human ACN cell growth in a cell viability assay.

[20] = system: MC116; type: functional, cell-based, Homo sapiens; settings: Homo sapiens, MC116;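 further: growth inhibition of MC116 cells, read out with a cell viability assay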
Description: SANGER: Inhibition of human MC116 cell growth in a cell viability assay.

[21] = system: NB69; type: functional, cell-based, Homo sapiens; settings: Homo sapiens, NB69;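 further: growth inhibition of NB69 cells, determined by a cell viability assay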
Description: SANGER: Inhibition of human NB69 cell growth in a cell viability assay.

[22] = system: HT; type: functional, cell-based, Homo sapiens; settings: Homo sapiens, HT
Description: SANGER: Inhibition of human HT cell growth in a cell viability assay.

[23] = system: C8166; type: functional, cell-based, Homo sapiens; settings: Homo sapiens, C8166;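 further: growth inhibition of human C8166 cells measured by a cell viability assay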
Description: SANGER: Inhibition of human C8166 cell growth in a cell viability assay.

[24] = system: NCI-H446; type: functional, cell-based, Homo sapiens; settings: Homo sapiens, NCI-H446;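 further: growth inhibition of NCI-H446 cells determined by a cell viability assay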
Description: SANGER: Inhibition of human NCI-H446 cell growth in a cell viability assay.

[25] = system: KU812 cell line; type: functional, cell-based, Homo sapiens; settings: Homo sapiens, KU812;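 further: growth inhibition of KU812 cells, read out with a cell viability assay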
Description: SANGER: Inhibition of human KU812 cell growth in a cell viability assay.

[26] = system: MLMA; type: functional, cell-based, Homo sapiens; settings: Homo sapiens, MLMA;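 further: growth inhibition of MLMA cells (human), determined through a cell viability readout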
Description: SANGER: Inhibition of human MLMA cell growth in a cell viability assay.

[27] = system: DB; type: functional, cell-based, Homo sapiens; settings: Homo sapiens, DB
Description: SANGER: Inhibition of human DB cell growth in a cell viability assay.

[28] = system: MMAC-SF; type: functional, cell-based, Homo sapiens; settings: Homo sapiens, MMAC-SF;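 further: growth inhibition of human MMAC-SF cells, read out with a cell viability assay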
Description: SANGER: Inhibition of human MMAC-SF cell growth in a cell viability assay.

[29] = system: Lu-65; type: functional, cell-based, Homo sapiens; settings: Homo sapiens, Lu-65;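 further: growth inhibition of Lu-65 cancer cells, read out by a cell viability assay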
Description: SANGER: Inhibition of human LU-65 cell growth in a cell viability assay.

[30] = system: LNCaP-Clone-FGC; type: functional, cell-based, Homo sapiens; settings: Homo sapiens, LNCaP-Clone-FGC
Description: SANGER: Inhibition of human LNCaP-Clone-FGC cell growth in a cell viability assay.

[31] = system: RCC10RGB; type: functional, cell-based, Homo sapiens; settings: Homo sapiens, RCC10RGB;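 further: growth inhibition of human RCC10RGB cells, read out by a cell viability assay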
Description: SANGER: Inhibition of human RCC10RGB cell growth in a cell viability assay.

[32] = system: NKM-1; type: functional, cell-based, Homo sapiens; settings: Homo sapiens, NKM-1;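 further: growth inhibition of NKM-1 cells, read out with a cell viability assay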
Description: SANGER: Inhibition of human NKM-1 cell growth in a cell viability assay.

[33] = system: JVM-2; type: functional, cell-based, Homo sapiens; settings: Homo sapiens, JVM-2;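 further: growth inhibition of JVM-2 cells determined by a cell viability assay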
Description: SANGER: Inhibition of human JVM-2 cell growth in a cell viability assay.

[34] = system: MHH-PREB-1; type: functional, cell-based, Homo sapiens; settings: Homo sapiens, MHH-PREB-1;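 further: cell viability assay measuring inhibition of proliferation of human MHH-PREB-1 cells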
Description: SANGER: Inhibition of human MHH-PREB-1 cell growth in a cell viability assay.

[35] = system: CW-2; type: functional, cell-based, Homo sapiens; settings: Homo sapiens, CW-2;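 further: growth inhibition of CW-2 cells, read out by a cell viability assay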
Description: SANGER: Inhibition of human CW-2 cell growth in a cell viability assay.

[36] = system: 697; type: functional, cell-based, Homo sapiens; settings: Homo sapiens
Description: SANGER: Inhibition of human 697 cell growth in a cell viability assay.

[37] = system: MZ7-mel; type: functional, cell-based, Homo sapiens; settings: Homo sapiens, MZ7-mel;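 further: growth inhibition of human MZ7-mel cells, measured by a cell viability assay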
Description: SANGER: Inhibition of human MZ7-mel cell growth in a cell viability assay.

[38] = system: L-428; type: functional, cell-based, Homo sapiens; settings: Homo sapiens, L-428
Description: SANGER: Inhibition of human L-428 cell growth in a cell viability assay.

[39] = system: A101D; type: functional, cell-based, Homo sapiens; settings: Homo sapiens, A101D;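 further: growth inhibition of the cell line, measured with a viability assay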
Description: SANGER: Inhibition of human A101D cell growth in a cell viability assay.

[40] = system: D-263MG; type: functional, cell-based, Homo sapiens; settings: Homo sapiens, D-263MG
Description: SANGER: Inhibition of human D-263MG cell growth in a cell viability assay.

[41] = system: JAR; type: functional, cell-based, Homo sapiens; settings: Homo sapiens, JAR;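 further: growth inhibition of human JAR cells determined with a cell viability assay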
Description: SANGER: Inhibition of human JAR cell growth in a cell viability assay.

[42] = system: HCE-T; type: functional, cell-based, Homo sapiens; settings: Homo sapiens, HCE-T;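 further: cell viability assay read-out, reporting inhibition of HCE-T cell growth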
Description: SANGER: Inhibition of human HCE-T cell growth in a cell viability assay.

[43] = system: KURAMOCHI; type: functional, cell-based, Homo sapiens; settings: Homo sapiens, KURAMOCHI;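 further: growth inhibition of KURAMOCHI cells, read out with a cell viability assay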
Description: SANGER: Inhibition of human KURAMOCHI cell growth in a cell viability assay.

[44] = system: GI-1; type: functional, cell-based, Homo sapiens; settings: Homo sapiens, GI-1;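 further: growth inhibition of human GI-1 cells, measured with a cell viability readout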
Description: SANGER: Inhibition of human GI-1 cell growth in a cell viability assay.

[45] = system: SF-539; type: functional, cell-based, Homo sapiens; settings: Homo sapiens, SF-539;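 further: Read-out is a cell viability assay, with IC50 reflecting inhibition of cell growth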
Description: SANGER: Inhibition of human SF539 cell growth in a cell viability assay.

[46] = system: KP-N-YS; type: functional, cell-based, Homo sapiens; settings: Homo sapiens, KP-N-YS;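 further: cell viability assay measuring inhibition of cell line growth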
Description: SANGER: Inhibition of human KP-N-YS cell growth in a cell viability assay.

[47] = system: GT3TKB; type: functional, cell-based, Homo sapiens; settings: Homo sapiens, GT3TKB;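 further: growth inhibition of the cell line, read out with a cell viability assay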
Description: SANGER: Inhibition of human GT3TKB cell growth in a cell viability assay.

[48] = system: SW872; type: functional, cell-based, Homo sapiens; settings: Homo sapiens, SW872;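 further: growth inhibition of SW872 cells, read out by a viability assay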
Description: SANGER: Inhibition of human SW872 cell growth in a cell viability assay.

[49] = system: HuTu80; type: functional, cell-based, Homo sapiens, HUTU-80; settings: Homo sapiens, HuTu80;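 further: growth inhibition of HuTu80 human cells, determined with a cell viability readout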
Description: SANGER: Inhibition of human HUTU-80 cell growth in a cell viability assay.

COc1cc(-c2nn([C@H]3CC[C@H](N4CCN(C(C)=O)CC4)CC3)c3ncnc(N)c23)ccc1NC(=O)c1cc2ccccc2n1C
pIC50 [1]: 6.32 | pIC50 [2]: < 5.29 | pIC50 [3]: < 5.29 | pIC50 [4]: < 5.29 | pIC50 [5]: < 5.29 | pIC50 [6]: < 5.29 | pIC50 [7]: 6.62 | pIC50 [8]: < 5.29 | pIC50 [9]: < 5.29 | pIC50 [10]: < 5.29 | pIC50 [11]: < 5.29 | pIC50 [12]: < 5.29 | pIC50 [13]: 5.69 | pIC50 [14]: < 5.29 | pIC50 [15]: 6.47 | pIC50 [16]: < 5.29 | pIC50 [17]: < 5.29 | pIC50 [18]: < 5.29 | pIC50 [19]: < 5.29 | pIC50 [20]: 6.07 | pIC50 [21]: 5.48 | pIC50 [22]: < 5.29 | pIC50 [23]: < 5.29 | pIC50 [24]: < 5.29 | pIC50 [25]: < 5.29 | pIC50 [26]: 6.68 | pIC50 [27]: < 5.29 | pIC50 [28]: < 5.29 | pIC50 [29]: < 5.29 | pIC50 [30]: < 5.29 | pIC50 [31]: < 5.29 | pIC50 [32]: < 5.29 | pIC50 [33]: < 5.29 | pIC50 [34]: 5.31 | pIC50 [35]: < 5.29 | pIC50 [36]: 5.76 | pIC50 [37]: < 5.29 | pIC50 [38]: < 5.29 | pIC50 [39]: 5.43 | pIC50 [40]: < 5.29 | pIC50 [41]: < 5.29 | pIC50 [42]: < 5.29 | pIC50 [43]: 6.05 | pIC50 [44]: < 5.29 | pIC50 [45]: < 5.29 | pIC50 [46]: < 5.29 | pIC50 [47]: < 5.29 | pIC50 [48]: 6.34 | pIC50 [49]: 5.82

OCCCNc1cc(-c2ccnc(Nc3cccc(Cl)c3)n2)ccn1
pIC50 [1]: 7.78 | pIC50 [2]: 7.20 | pIC50 [3]: < 6.59 | pIC50 [4]: 6.63 | pIC50 [5]: 7.59 | pIC50 [6]: 6.92 | pIC50 [7]: 7.62 | pIC50 [8]: 6.80 | pIC50 [9]: < 6.59 | pIC50 [10]: < 6.59 | pIC50 [11]: < 6.59 | pIC50 [12]: 7.19 | pIC50 [13]: < 6.59 | pIC50 [14]: < 6.59 | pIC50 [15]: 7.56 | pIC50 [16]: 7.09 | pIC50 [17]: 6.91 | pIC50 [18]: 7.12 | pIC50 [19]: 6.78 | pIC50 [20]: 7.39 | pIC50 [21]: < 6.59 | pIC50 [22]: 7.18 | pIC50 [23]: < 6.59 | pIC50 [24]: < 6.59 | pIC50 [25]: 7.35 | pIC50 [26]: 7.24 | pIC50 [27]: 6.86 | pIC50 [28]: < 6.59 | pIC50 [29]: < 6.59 | pIC50 [30]: < 6.59 | pIC50 [31]: 6.95 | pIC50 [32]: 7.10 | pIC50 [33]: < 6.59 | pIC50 [34]: 7.23 | pIC50 [35]: < 6.59 | pIC50 [36]: 7.71 | pIC50 [37]: < 6.59 | pIC50 [38]: 6.95 | pIC50 [39]: 7.69 | pIC50 [40]: < 6.59 | pIC50 [41]: 7.09 | pIC50 [42]: 7.32 | pIC50 [43]: 7.22 | pIC50 [44]: 7.11 | pIC50 [45]: < 6.59 | pIC50 [46]: < 6.59 | pIC50 [47]: 7.23 | pIC50 [48]: 7.58 | pIC50 [49]: 7.69

CN(C)C(=N)NC(=N)N [METFORMIN]
pIC50 [2]: < 1.70 | pIC50 [3]: < 1.70 | pIC50 [4]: < 1.70 | pIC50 [6]: 1.78 | pIC50 [7]: < 1.70 | pIC50 [8]: < 1.70 | pIC50 [9]: < 1.70 | pIC50 [10]: 1.77 | pIC50 [11]: < 1.70 | pIC50 [13]: < 1.70 | pIC50 [14]: 1.82 | pIC50 [15]: < 1.70 | pIC50 [16]: 2.13 | pIC50 [17]: 1.89 | pIC50 [18]: < 1.70 | pIC50 [20]: < 1.70 | pIC50 [21]: < 1.70 | pIC50 [22]: 1.93 | pIC50 [25]: 2.98 | pIC50 [26]: < 1.70 | pIC50 [27]: < 1.70 | pIC50 [29]: 3.29 | pIC50 [30]: 2.28 | pIC50 [32]: 2.04 | pIC50 [33]: < 1.70 | pIC50 [34]: 1.94 | pIC50 [35]: 2.39 | pIC50 [36]: 2.19 | pIC50 [38]: 2.11 | pIC50 [39]: < 1.70 | pIC50 [40]: < 1.70 | pIC50 [41]: 2.04 | pIC50 [43]: < 1.70 | pIC50 [44]: < 1.70 | pIC50 [45]: < 1.70 | pIC50 [47]: < 1.70 | pIC50 [49]: < 1.70

Reference: ChEMBL document CHEMBL1201861, “Genomics of Drug Sensitity in Cancer screening data, Wellcome Trust Sanger Institute”
